Results from US5610174A, “Use of α1A -selective adrenoceptor agonists for the treatment of urinary incontinence” (priority 1995, dated 1997).

Columns and labels:
[1] = target: T1, human 5-HT2 receptor (Homo sapiens, UniProt P28223); test: Radioligand binding at human 5-HT2; details: [3H]ketanserin; read-out: pKi 5-HT2 (converted)
T1 construct: expressed in transfected cells; host or cells: COS-7 cells (text also names deposited cell line L-NGC-5-HT2, ATCC CRL 10287)
Protocol: The coding sequence of the human 5-HT2 receptor was obtained from a human brain cortex cDNA library, and cloned into the cloning site of pCEXV-3 eukaryotic expression vector. This construct was transfected into COS-7 cells by the DEAE-dextran method. Cells were harvested after 72 hours and lysed by sonication in 5 mM Tris-HCl, 5 mM EDTA, pH 7.5. This cell line was deposited with the ATCC on Oct. […] The cell lysates were centrifuged at 1000 rpm for 5 minutes at 4° C., and the supernatant was centrifuged at 30,000×g for 20 minutes at 4° C. The pellet was suspended in 50 mM Tris-HCl buffer (pH 7.7 at room temperature) containing 10 mM MgSO4, 0.5 mM EDTA, and 0.1% ascorbate. […] Nonspecific binding was defined by the addition of 10 μM mianserin. The bound radioligand was separated by filtration through GF/B filters using a cell harvester.

[2] = test system: α2-adrenoceptors; test: Activity at human α2-adrenoceptors (overall statement); type: cell-based; details: result in words
Protocol: α2 -Adrenoceptor-Mediated Inhibition of Forskolin Stimulated Adenylyl Cyclase
The agonist activity of test compounds was assayed by measuring their ability to inhibit adenylyl cyclase in cells stably transfected with each of the three cloned human α2 -adrenoceptors. LM(tk-) cells expressing the α2A - or the α2C -, as well as Y1 cells expressing the α2B -adrenoceptor were used. […] The formation of cyclic AMP was measured in cultures incubated with DMEM containing 1 mM theophylline. Twelve concentrations of the test compounds (from 10 pM to 100 μM) were added to the incubation medium and incubated at 37° C. for 20 min. Following this incubation step, 10 μM forskolin was added to stimulate the formation of cyclic AMP, and the cultures were incubated for another 10 min. The reaction was stopped by replacing the incubation medium with 100 mM HCl . The intracellular levels of cyclic AMP were measured by radioimmunoassay. The data from concentration-response curves was fitted to a four-parameter logistic equation, by non-linear regression analysis, to determine the pEC50 and intrinsic activity.

[3] = target: T2, human urethra (α1-adrenoceptor) (Homo sapiens, UniProt P35348); test: Contractile study in isolated human male urethra; details: versus phenylephrine-induced contraction; read-out: pKB Human Urethra Male (converted)
T2 construct: Tissue samples from the proximal urethra of male humans; from tissue; host or cells: human male proximal urethra strips
T2 sequence (P35348 1-466): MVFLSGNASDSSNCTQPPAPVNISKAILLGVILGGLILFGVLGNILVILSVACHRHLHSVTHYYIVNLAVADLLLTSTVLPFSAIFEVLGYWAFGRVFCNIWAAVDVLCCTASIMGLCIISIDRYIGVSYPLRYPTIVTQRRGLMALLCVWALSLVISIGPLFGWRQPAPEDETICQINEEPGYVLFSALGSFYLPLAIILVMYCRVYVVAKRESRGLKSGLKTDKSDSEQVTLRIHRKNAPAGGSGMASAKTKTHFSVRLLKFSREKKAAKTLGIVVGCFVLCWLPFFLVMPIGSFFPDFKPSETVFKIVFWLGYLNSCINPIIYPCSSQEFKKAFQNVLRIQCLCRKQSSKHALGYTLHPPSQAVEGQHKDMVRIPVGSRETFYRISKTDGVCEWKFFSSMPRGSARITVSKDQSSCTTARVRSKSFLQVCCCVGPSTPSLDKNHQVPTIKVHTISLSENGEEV
Description: (§1) In addition, similar studies were done using bladder neck tissue from female dogs. In order to identify the specific receptor subtype in each tissue, the pharmacological profile was compared to the profiles for these same drugs at the cloned human α1A, α1B, or α1C subtypes.
(§2) Tissue samples from the proximal urethra of male humans and male and female rabbits, as well as tissue samples from both the proximal urethra and bladder neck of male and female dogs were cut into transverse strips (3×10 mm) and suspended under 0.5 g tension in Krebs' physiological buffer at 37° C. To determine agonist potency (pEC50 )and antagonist affinity constants (pKB), concentration-effect curves to the non-selective agonist phenylepherine were constructed in the absence and in the presence of increasing concentrations of the antagonist. Up to four sequential curves were constructed in each tissue. Antagonists were allowed to equilibrate for 1h before each concentration-effect curve, and the drugs were completely washed out in between successive curves. In each experiment, one tissue served as a "time control", in which no antagonist was added so that changes in tissue sensitivity could be assessed as a function of time. […] In instances in which a single concentration of antagonist was used, pKB values were determined by the equation: […], where CR is defined as the ratio of the agonist EC50 in the presence of the antagonist to that in the absence of the antagonist.

[4] = target: T3, dog BN, male (α1-adrenoceptor) (Canis lupus, UniProt A0A8I3NK63); test: Contractile study in isolated male dog bladder neck; details: versus phenylephrine-induced contraction
T3 sequence (A0A8I3NK63 1-466): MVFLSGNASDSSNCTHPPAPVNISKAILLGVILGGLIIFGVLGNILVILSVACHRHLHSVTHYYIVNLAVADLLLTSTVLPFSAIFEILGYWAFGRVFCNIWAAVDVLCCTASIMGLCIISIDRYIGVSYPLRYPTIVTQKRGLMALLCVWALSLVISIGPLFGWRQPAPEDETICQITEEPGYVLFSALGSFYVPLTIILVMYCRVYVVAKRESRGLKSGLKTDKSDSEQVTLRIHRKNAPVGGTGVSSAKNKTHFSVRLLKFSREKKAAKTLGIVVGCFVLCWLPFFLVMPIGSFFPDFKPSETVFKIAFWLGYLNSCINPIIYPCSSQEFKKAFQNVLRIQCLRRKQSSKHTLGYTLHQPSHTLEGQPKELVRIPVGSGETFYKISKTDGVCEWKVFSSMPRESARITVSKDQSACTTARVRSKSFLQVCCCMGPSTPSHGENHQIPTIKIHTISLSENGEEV
Description: as §1, §2

T1 sequence (P28223 whole entry): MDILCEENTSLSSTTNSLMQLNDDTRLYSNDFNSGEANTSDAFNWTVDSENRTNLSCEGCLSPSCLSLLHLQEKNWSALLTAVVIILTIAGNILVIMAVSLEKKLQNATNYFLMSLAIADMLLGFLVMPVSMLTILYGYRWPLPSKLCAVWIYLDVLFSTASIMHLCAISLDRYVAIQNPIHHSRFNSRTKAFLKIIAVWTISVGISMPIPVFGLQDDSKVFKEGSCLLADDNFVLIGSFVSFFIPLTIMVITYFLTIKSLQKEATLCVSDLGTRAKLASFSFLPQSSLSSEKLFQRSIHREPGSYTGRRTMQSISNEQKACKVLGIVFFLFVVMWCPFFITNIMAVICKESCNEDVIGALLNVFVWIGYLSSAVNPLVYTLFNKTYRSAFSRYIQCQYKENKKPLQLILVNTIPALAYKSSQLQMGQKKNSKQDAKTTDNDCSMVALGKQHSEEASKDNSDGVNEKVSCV

Compound | Ki [1] | activity at α2-adrenoceptors [2] | Kb [3] | pKB Dog BN Male [4]
CS(=O)(=O)Nc1c(O)ccc2c1CCCC2C1=NCCN1 (racemic) [Compound A-61603, (±)-N-[5-(4,5-Dihydro-1H-imidazol-2-yl)-2-hydroxy-5,6,7,8-tetra-hydronaphthalen-1-yl]methanesulfonamide] | 50100 nM | significant activity |  | 
COc1ccc(SC)c2c1C[C@@H]1[C@@H](C2)OCCN1C (relative stereo) [SDZ NVI-085, (±)-trans-4-Methyl-6-methoxy-9-thiomethoxy-3,4,4a, 5,10,10a-hexahydro-2H-naphtho[2,3-b][1,4]oxazine] | 316 nM |  |  | 
COc1cc2c(cc1OC)CN(c1cc(N)c3cc(OC)c(OC)cc3n1)CC2 [Abanoquil, 2-(6,7-Dimethoxy-3,4-dihydro-1H-isoquinolin-2-yl)-6,7-dimethoxyquinolin-4-ylamine hemifumarate hydrate] |  |  | 0.251 nM | 8.6
COc1ccccc1N1CCN(CCCNc2c(C)c(=O)n(C)c(=O)n2C)CC1 [Compound 5-MU] |  |  | 1.58 nM | 8.7
CNCCc1ccc(O)c(NS(C)(=O)=O)c1 [SK&F 102652] |  | significant activity |  | 
